# Entries after “also recorded” stand apart in the source; their conditions may differ. Where two headings read alike, the source gives them in different places.
# How the values were obtained:
# [1] = tested on: annual morningglory (Ipomoea spp.); format: in vivo
# From the text: The effects on herbicidal activity of combinations of SEP 100 (Na azide) with metam Na, Na thiosulfate, methyl disulfide and the herbicide EPTC (Eptam 7E, Eradicane 6.7E) were studied in greenhouse experiments. In a first experiment SEP 100 was applied by drenching (1″ acre water) at 150 lbs a.i./A to pots (4 inch diam; PVC) containing each 2.2 pounds of silt loam (pH 6.2; org. matter <1.0%) from a cotton field. Immediately after treatment each pot was covered with a clear polyethylene bag (1.5 mil). The bags were removed 4 days after, and additional applications were drenched in with: Vapam HL, at 120 gal/A; EPTC at 8 and 10 lbs ai/A; Na thiosulfate at 200 and 300 lbs ai/A; and methyl disulfide at 300 lbs ai/A. Pots were again covered with the bags for 3 days after which they were removed and pots planted with annual morningglory (Ipomoea spp.; 25 seed/pot). Some pots received only SEP 100 and others received water only. Each treatment was represented by 7 pots (experimental units) arranged in a randomized complete block design on a bench. The number of plants in each pot was determined at 10, 13, and 26 days after application of SEP 100. Momingglory plant tops were collected from each pot 33 days after initiation of the experiment and their fresh weight was determined.
# [2] = tested on: Morningglory (Ipomoea spp.); format: in vivo
# From the text: Compounds: Sodium azide, metam sodium (Vapam HL), EPTC, sodium thiosulfate, and methyl disulfide were delivered in aqueous solutions or emulsions (5% of SEP 100 for sodium azide; 5% for Vapam; 0.25% for EPTC, 2.5% for sodium thiosulfate; 2.5% for methyl disulfide) prepared immediately before use by diluting in demineralized water while stirring with a magnetic stirrer.
# Sources: SEP 100 from American Pacific Corp., metam sodium as Vapam HL (32, 7% a.i.) from AMVAC, EPTC from Gowen, sodium thiosulfate and methyl disulfide from Aldrich.
# Rates: Metam sodium at 163.5 mgs a.i./kg soil-equivalent to 0, and 327 lbs a.i./acre (120 gal Vapam HL/A). Sodium azide at 75 mgs a.i./kg soil equivalent to 150 lbs a.i./A, sodium thiosulfate at 200 and 300 lbs/A; EPTC at 8 and 10 lbs/A, and methyl disulfide at 300 lbs/A.
# All different possible combinations of sodium azide with the other deactivating compounds and their corresponding rates were included in the experiment together with the appropriate controls.
# Application Method and Procedure: Each treatment was delivered by drenching in 100 mls aqueous volume onto the soil surface in pots (10-cm diam; PVC) containing 1 kg soil. The soil was from a cotton field (silt loam; pH 6.2; CEC<10 meq/100 gm soil; org. matter <1.0%). Sodium azide was applied on day one, and the other compounds four days later. Immediately after treatment the pots were covered by a thick (1.5 mil) clear low density polyethylene bag held tight against the outer wall of the pot by a rubber band. Three days after application of “deactivator compounds” the bags were removed and the pots were planted with morningglory seed (25 seed/pot). Counts were taken from each pot (experimental unit) at 10, 13, and 26 days after application of sodium azide. Morningglory plant tops were collected from each pot 33 days after initiation of the experiment and fresh weights were determined.
# Major Pests: Morningglory (Ipomoea spp.)
# Experimental Design: Randomized complete block with seven replications/treatment.
# Statistical Analyses: Anova and Fischer's least significant difference (flsd) at p 0.05. Regression analyses.
# [3] = tested on: morningglory; assay: Example 2 greenhouse pot experiment, fixed Vapam HL rate with SEP 100 rates; format: in vivo, Ipomoea spp.; conditions: Vapam HL 60 gal/A on soil treated with SEP 100 40-120 lbs a.i./A
# From the text: The effects on herbicidal activity of combinations of SEP 100 (Na azide) with metam Na, Na thiosulfate, methyl disulfide and the herbicide EPTC (Eptam 7E, Eradicane 6.7E) were studied in greenhouse experiments. In a first experiment SEP 100 was applied by drenching (1″ acre water) at 150 lbs a.i./A to pots (4 inch diam; PVC) containing each 2.2 pounds of silt loam (pH 6.2; org. matter <1.0%) from a cotton field. Immediately after treatment each pot was covered with a clear polyethylene bag (1.5 mil). […] The number of plants in each pot was determined at 10, 13, and 26 days after application of SEP 100. Momingglory plant tops were collected from each pot 33 days after initiation of the experiment and their fresh weight was determined.
# A second experiment explored the interaction between a fixed rate of Vapam HL (60 gal/A) and applications of SEP 100 in the 40-120 lbs a.i./A range. The methods and procedure followed were as for the first experiment except that weed counts were taken at 13 and 17 days after application and plant top weights were determined 32 days after initiation of the experiment.
# [4] = tested on: morningglory
# From the text: Compounds: sodium azide and metam sodium (Vapam HL) were delivered in aqueous solutions (1.0% of SEP 100 for sodium azide; 5% for Vapam) prepared immediately before use by diluting in demineralized water while stirring with a magnetic stirrer.
# Source: SEP 100 from American Pacific Corp., and metam sodium as Vapam HL (32, 7% a.i.) from AMVAC.
# Rates: Metam sodium at 0, and 82 mgs a.i./kg soil-equivalent to 0, and 60 gal/A. Sodium azide at 0, 20, 40 and 60 mgs a.i./kg soil equivalent to 0, 40, 80, and 120 lbs a.i./A, respectively. Each metam sodium rate was applied to soil in combination with each sodium azide dose.
# [5] = tested on: warm season turf species; conditions: cited from earlier work
# [6] = applied 4 days after sodium azide 150 lbs a.i./A, metam sodium 327 lbs a.i./acre, sodium thiosulfate 200 and 300 lbs/A, methyl disulfide 300 lbs/A, 10, 13, 26 days
structure (smiles),measurement,setting,value
CSSC [methyl disulfide],"effect on herbicidal activity of Na azide (number of morningglory plants, FIG. 1A)","[1]; applied 4 days after SEP 100 150 lbs a.i./A, Vapam HL 120 gal/A, Na thiosulfate 200 and 300 lbs ai/A, methyl disulfide 300 lbs ai/A, counts at 10, 13, 26 days",little effect
same,"effect on herbicidal activity of sodium azide (number of morningglory plants per pot, FIGS. 3A-3C)",[2]; [6],inconclusive
"CNC(=S)S [metam sodium, sodium methyl dithiocarbamate]",effect on morningglory top weights (FIG. 2B),[3]; 32 days,diminished herbicidal activity of sodium azide
same,"effect on herbicidal activity of Na azide (number of morningglory plants, FIG. 2A)",[3]; counts at 13 and 17 days,diminishes the herbicidal activity of sodium azide
same,"effect on herbicidal activity of sodium azide (number of morningglory plants per pot, FIGS. 3A-3C)",[2]; [6],significantly reduced the herbicidal activity of sodium azide; also recorded: nullified the herbicidal activity of sodium azide
same,morningglory growth / top weights (FIG. 3D),"[2]; sodium azide 150 lbs a.i./A, then metam sodium 327 lbs a.i./acre, 33 days",synergistic beneficial effects
same,effect on morningglory top weights,[4]; metam sodium 60 gal/A on soil previously treated with sodium azide,synergistic beneficial effects
same,"effect on herbicidal activity of sodium azide (number of morningglory plants per pot, FIGS. 4A-4C)","[4]; metam sodium 60 gal/A with sodium azide 0, 40, 80, 120 lbs a.i./A, 13, 17, 30 days",nullified the herbicidal activity of sodium azide
"CCCN(CCC)C(=O)SCC [EPTC, S-ethyl dipropylthiocarbamate]",herbicidal activity against morningglory,"[1]; EPTC 8 and 10 lbs ai/A, SEP 100 150 lbs a.i./A",strongly herbicidal
same,herbicidal activity against morningglory,"[2]; EPTC 8 and 10 lbs/A, sodium azide 150 lbs a.i./A",strongly herbicidal
[N-]=[N+]=[N-] [sodium azide],plant back interval required for successful establishment,[5],3-4 weeks
O=S([O-])([O-])=S.[Na+].[Na+] [sodium thiosulfate],"effect on herbicidal activity of Na azide (number of morningglory plants, FIG. 1A)",[1]; in vivo,little effect
same,"effect on herbicidal activity of sodium azide (number of morningglory plants per pot, FIGS. 3A-3C)",[2]; in vivo,inconclusive

# Reference: US20080214398A1, “Herbicidal activities of combinations of sodium azide with sulfur containing and other deactivating compounds” (priority 2005, published 2008)
